Patent publication EP0499162A2, “GM-CSF inhibiting oligopeptides” (Bristol-Myers Squibb Company, priority 1991, dated 1992)
Where no end group is shown, it is not given here.

Tested on: GM-CSF
Assay: GM-CSF activity on bone marrow precursors (liquid culture, methylene blue dye absorbance of adherent granulocytes and macrophages)
Format: cell-based, murine
Details: at any of the test concentrations (Figure 2)
Method: To determine the effect of the desired inhibitory oligopeptide, the following assay, using murine bone marrow precursors, was developed. Of course, if using an oligopeptide derivable from a species other than murine, substitution of cells from that species into the assay procedure would be required.
The biological activity of GM-CSF was determined in a liquid culture system of murine bone marrow cells (see, e.g., I. Bursuker, et al., J. Reticuloendothelial Soc., 25, 533 (1979)). Bone marrow cells were collected from femurs and tibia of 10 to 12 week old CB6F1 (C57BLxBalb/c) male mice (Harlan-Sprague Dawley, Inc., Indianapolis, Indiana) by flushing dissected and clean bones with phosphate buffered saline ("PBS", GIBCO, Grand Island, New York). Viable cell count was determined using trypan blue. The cells then were plated (1 ml/well; 2 X 10^5 cells/ml) in 24-well tissue culture plates (Costar, Cambridge, MA). Granulocyte-macrophage colony stimulating factor ("GM-CSF"; 2 ng/ml; recombinantly produced and available from PeproTech, Inc., Rocky Hill, NJ) and the desired oligopeptide were added at the desired concentration to the wells. […] The dye absorbance was measured at 620 nm in a MCC/340 Titertech Multiscan plate reader (Eflab, Helsinki, Finland). The dye absorbance reading is proportional to the number of cells in the culture.

“YYQTYCPPTPETD [Oligopeptide P96-109, oligopeptide spanning a region of the murine GM-CSF molecule, 13 amino acids]” was tested, and the “effect on the biological activity of GM-CSF” value was “did not affect”.
